For experiment [1], the target named is Beta-2 adrenergic receptor (Homo sapiens) (UniProt P07550). As to conditions: Compound concentration 10.0 uM.
Experiment [2] has as its target 5-hydroxytryptamine receptor 2A (Homo sapiens) (UniProt P28223). Conditions: Compound concentration 10.0 uM.
Experiment [3] deals with Serine/threonine-protein kinase Nek7 (Homo sapiens) (UniProt Q8TDX7). Description: NEK7 SGC Tm panel (DSF). Conditions: for ΔTm: Compound concentration 10.0 uM.
Experiment [4] addresses T1, Mitogen-activated protein kinase kinase kinase 5 (Homo sapiens) (UniProt Q99683).
T1 sequence (whole entry): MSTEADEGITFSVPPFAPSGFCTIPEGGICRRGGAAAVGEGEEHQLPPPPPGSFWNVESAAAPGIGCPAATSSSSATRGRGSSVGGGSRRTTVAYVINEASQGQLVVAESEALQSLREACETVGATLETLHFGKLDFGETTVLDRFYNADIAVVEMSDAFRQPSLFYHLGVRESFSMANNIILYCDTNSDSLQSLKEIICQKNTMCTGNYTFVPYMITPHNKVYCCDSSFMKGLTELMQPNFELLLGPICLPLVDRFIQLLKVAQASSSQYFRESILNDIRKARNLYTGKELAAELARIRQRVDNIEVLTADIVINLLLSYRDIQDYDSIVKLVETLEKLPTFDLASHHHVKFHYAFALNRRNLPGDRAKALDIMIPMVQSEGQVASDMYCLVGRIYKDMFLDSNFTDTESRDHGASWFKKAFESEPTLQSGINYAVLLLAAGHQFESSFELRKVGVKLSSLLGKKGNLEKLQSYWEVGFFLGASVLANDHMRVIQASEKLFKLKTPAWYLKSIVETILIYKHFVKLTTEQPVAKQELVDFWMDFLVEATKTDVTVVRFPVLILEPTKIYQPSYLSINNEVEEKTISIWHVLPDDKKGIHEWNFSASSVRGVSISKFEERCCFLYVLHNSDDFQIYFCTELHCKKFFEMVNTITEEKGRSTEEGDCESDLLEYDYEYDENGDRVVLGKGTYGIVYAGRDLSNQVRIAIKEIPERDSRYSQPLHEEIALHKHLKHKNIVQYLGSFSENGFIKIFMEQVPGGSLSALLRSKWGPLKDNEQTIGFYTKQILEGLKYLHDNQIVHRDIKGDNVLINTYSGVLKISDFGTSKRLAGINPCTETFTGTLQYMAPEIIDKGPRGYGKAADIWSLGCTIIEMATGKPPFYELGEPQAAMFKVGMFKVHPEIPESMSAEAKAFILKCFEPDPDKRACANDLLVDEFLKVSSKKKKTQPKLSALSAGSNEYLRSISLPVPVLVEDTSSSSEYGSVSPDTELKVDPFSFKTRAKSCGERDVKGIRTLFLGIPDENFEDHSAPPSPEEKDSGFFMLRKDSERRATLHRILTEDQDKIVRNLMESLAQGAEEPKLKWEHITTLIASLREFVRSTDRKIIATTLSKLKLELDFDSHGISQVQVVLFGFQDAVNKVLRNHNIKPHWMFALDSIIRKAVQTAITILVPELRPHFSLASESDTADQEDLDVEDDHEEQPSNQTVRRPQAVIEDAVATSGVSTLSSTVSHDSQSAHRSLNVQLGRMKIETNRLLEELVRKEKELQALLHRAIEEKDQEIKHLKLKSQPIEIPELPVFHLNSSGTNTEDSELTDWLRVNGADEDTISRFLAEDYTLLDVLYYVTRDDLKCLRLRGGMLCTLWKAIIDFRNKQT
Description: MAP3K5 SGC Tm panel (DSF). Conditions: for ΔTm: Compound concentration 10.0 uM.

In experiment [5] the target is T2, Cyclin-G-associated kinase (Homo sapiens) (UniProt O14976).
T2 sequence (whole entry): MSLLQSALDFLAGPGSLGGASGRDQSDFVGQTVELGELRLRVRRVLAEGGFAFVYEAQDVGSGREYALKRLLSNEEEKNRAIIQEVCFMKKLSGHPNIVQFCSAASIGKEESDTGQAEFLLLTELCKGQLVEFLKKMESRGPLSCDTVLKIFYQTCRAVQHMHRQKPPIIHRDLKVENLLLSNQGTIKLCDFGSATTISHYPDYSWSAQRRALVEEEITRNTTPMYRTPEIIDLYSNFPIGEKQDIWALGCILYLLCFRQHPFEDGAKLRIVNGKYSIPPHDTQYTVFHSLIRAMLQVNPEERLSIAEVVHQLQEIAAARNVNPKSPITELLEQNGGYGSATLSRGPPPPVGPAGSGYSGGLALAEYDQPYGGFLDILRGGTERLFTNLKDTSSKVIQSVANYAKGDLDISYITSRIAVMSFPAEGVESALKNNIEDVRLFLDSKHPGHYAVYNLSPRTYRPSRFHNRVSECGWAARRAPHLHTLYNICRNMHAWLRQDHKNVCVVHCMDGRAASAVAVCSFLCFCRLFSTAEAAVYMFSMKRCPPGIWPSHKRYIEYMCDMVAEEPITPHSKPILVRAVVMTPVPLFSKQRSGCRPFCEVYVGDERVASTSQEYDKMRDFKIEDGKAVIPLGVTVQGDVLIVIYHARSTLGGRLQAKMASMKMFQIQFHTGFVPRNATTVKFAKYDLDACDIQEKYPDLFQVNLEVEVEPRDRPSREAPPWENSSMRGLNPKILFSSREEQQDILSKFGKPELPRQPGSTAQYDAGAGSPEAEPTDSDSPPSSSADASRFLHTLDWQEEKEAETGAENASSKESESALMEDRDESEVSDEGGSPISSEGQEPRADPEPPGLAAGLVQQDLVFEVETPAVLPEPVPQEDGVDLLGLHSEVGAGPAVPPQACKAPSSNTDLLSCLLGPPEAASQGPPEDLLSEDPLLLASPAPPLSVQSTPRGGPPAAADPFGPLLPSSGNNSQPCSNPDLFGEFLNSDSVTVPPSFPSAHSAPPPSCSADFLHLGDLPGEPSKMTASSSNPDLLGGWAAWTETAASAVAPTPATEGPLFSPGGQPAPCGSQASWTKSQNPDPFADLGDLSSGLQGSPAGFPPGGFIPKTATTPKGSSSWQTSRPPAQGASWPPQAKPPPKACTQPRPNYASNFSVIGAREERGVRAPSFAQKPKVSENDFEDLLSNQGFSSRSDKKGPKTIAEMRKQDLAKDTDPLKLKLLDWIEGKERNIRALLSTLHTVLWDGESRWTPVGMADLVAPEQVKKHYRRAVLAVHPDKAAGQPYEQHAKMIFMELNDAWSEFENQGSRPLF
Nature of the experiment: GAK SGC Tm panel (DSF). As to conditions: for ΔTm: Compound concentration 10.0 uM.

The target in experiment [6] is Histamine H3 receptor (Homo sapiens) (UniProt Q9Y5N1). Conditions: Compound concentration 10.0 uM.
In experiment [7] the target is Casein kinase II subunit alpha (Homo sapiens) (UniProt P68400). Nature of the experiment: CSNK2A1 SGC Tm panel (DSF). As to conditions: for ΔTm: Compound concentration 10.0 uM.

These results are taken from ChEMBL document CHEMBL5303765, “Data for DCP probe BAY-7081” (2023).

Histamine H3 receptor (Homo sapiens), sequence (Q9Y5N1 whole entry): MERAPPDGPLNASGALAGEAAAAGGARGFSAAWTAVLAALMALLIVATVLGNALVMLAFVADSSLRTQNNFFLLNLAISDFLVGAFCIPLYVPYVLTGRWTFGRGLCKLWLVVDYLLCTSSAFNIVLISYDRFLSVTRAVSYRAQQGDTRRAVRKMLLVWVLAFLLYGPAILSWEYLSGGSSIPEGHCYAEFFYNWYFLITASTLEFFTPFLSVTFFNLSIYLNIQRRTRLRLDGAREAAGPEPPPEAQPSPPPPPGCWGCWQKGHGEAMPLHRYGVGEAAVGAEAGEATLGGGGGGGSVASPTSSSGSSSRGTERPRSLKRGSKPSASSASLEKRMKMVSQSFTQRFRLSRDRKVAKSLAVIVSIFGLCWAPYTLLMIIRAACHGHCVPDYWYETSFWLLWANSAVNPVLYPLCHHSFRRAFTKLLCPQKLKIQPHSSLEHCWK
Serine/threonine-protein kinase Nek7 (Homo sapiens), sequence (Q8TDX7 whole entry, looked up): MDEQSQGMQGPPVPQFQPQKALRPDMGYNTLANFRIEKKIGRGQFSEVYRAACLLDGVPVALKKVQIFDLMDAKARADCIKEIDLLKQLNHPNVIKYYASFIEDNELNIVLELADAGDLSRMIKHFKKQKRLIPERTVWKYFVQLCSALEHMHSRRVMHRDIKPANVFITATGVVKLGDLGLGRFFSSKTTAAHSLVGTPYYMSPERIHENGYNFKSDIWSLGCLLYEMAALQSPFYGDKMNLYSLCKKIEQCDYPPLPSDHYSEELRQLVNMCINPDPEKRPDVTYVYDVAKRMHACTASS
Casein kinase II subunit alpha (Homo sapiens), sequence (P68400 whole entry, looked up): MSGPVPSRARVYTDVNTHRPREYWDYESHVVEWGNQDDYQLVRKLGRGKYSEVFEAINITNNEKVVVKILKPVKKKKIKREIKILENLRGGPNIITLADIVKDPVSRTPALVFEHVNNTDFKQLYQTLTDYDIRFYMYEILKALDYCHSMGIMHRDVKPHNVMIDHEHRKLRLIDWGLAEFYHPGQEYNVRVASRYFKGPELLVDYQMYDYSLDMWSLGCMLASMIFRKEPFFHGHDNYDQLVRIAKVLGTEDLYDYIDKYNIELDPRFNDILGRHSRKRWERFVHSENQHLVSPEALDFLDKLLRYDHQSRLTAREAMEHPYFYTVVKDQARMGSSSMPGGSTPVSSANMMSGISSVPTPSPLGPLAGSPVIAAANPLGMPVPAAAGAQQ
Beta-2 adrenergic receptor (Homo sapiens), sequence (P07550 whole entry, looked up): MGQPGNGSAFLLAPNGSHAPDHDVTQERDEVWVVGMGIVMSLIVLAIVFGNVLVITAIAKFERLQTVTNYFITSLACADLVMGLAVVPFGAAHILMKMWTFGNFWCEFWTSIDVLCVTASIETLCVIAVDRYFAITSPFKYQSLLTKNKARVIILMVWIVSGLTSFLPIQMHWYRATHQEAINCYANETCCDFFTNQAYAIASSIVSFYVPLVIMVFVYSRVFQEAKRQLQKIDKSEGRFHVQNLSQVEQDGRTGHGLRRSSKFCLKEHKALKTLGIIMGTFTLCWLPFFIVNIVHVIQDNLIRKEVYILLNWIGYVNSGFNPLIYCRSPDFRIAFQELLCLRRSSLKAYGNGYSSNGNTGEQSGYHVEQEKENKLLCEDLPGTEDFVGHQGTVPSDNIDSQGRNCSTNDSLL
5-hydroxytryptamine receptor 2A (Homo sapiens), sequence (P28223 whole entry): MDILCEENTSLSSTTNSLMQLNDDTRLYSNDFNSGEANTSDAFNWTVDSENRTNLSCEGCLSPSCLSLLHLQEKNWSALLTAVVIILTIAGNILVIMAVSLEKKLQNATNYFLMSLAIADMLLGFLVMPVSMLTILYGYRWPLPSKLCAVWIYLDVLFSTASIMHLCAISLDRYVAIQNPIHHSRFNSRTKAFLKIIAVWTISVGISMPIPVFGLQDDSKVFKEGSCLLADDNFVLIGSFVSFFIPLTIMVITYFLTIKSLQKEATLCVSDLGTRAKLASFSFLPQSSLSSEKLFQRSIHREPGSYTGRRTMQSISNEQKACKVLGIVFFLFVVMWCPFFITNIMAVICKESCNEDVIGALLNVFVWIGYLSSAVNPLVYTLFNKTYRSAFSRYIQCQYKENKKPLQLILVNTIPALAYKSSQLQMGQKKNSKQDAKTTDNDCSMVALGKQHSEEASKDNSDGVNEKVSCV

The term inhibition denotes the relative decrease from the control value, in per cent. On to `CCC[C@H]1CNCc2c1[nH]c(=O)c(C#N)c2N1CCC2(CC1)CC2`, for which the values for the inhibition in experiment [1], in experiment [2] and in experiment [6] were -6.31%, -6.26% and -0.66%, respectively. Besides, the delta Tm Staurosporine positive control in experiment [3] was -0.489; in experiment [4] it was 17.7; in experiment [5], 9.89; in experiment [7] it was 4.47. Also, the ΔTm in experiment [3] was -0.134; in experiment [4] it was 0.00768; in experiment [5], -1.15; in experiment [7], -0.228.
As to `CCC[C@@H]1CNCc2c1[nH]c(=O)c(C#N)c2N1CCC2(CC1)CC2`, the inhibition in experiment [1] was -6.78%; in experiment [2] it was -4.86%; in experiment [6] it was -1.01%. Further, the delta Tm Staurosporine positive control in experiment [3] is -0.489; in experiment [4], 17.7; in experiment [5], 9.89; in experiment [7], 4.47. Further, the ΔTm in experiment [3] is -0.956; in experiment [4], -0.154; in experiment [5], -1.01; in experiment [7] it was -0.184.
